Measurements published in ChEMBL document CHEMBL1201862, “PubChem BioAssay data set” (2004).
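Cells were grown in 96-well plates and exposed to each compound for 48 hours at five concentrations; endpoints were interpolated linearly between bracketing concentrations, or set to the highest concentration if not reached. At the GI50, growth is halved.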 Active and inactive are the calls of the source. Cut-off read from the data, not from the text of the source: active = GI50 up to about 1.1 µM and inactive = higher.

Columns and labels:
Experiment in all cases: NCI anticancer screen, dose series, 48 h
SK-MEL-2 = system: SK-MEL-2
LOX IMVI = system: LOX IMVI
MOLT-4 = system: MOLT-4
CCRF-CEM = system: CCRF-CEM
RXF 393 = system: RXF 393
OVCAR-3 = system: OVCAR-3
NCI-H522 = system: NCI-H522
OVCAR-4 = system: OVCAR-4
UACC-257 = system: UACC-257
HOP-92 = system: HOP-92
SNB-19 = system: SNB-19
NCI-H460 = system: NCI-H460
SF-295 = system: SF-295
IGROV-1 = system: IGROV-1
KM12 = system: KM12
UACC-62 = system: UACC-62
COLO 205 = system: COLO 205
HCC 2998 = system: HCC 2998
SK-OV-3 = system: SK-OV-3
SNB-75 = system: SNB-75

Row | SMILES | GI50 (SK-MEL-2) | GI50 (LOX IMVI) | GI50 (MOLT-4) | GI50 (CCRF-CEM) | GI50 (RXF 393) | GI50 (OVCAR-3) | GI50 (NCI-H522) | GI50 (OVCAR-4) | GI50 (UACC-257) | GI50 (HOP-92) | GI50 (SNB-19) | GI50 (NCI-H460) | GI50 (SF-295) | GI50 (IGROV-1) | GI50 (KM12) | GI50 (UACC-62) | GI50 (COLO 205) | GI50 (HCC 2998) | GI50 (SK-OV-3) | GI50 (SNB-75)
1 | COc1ccc(CCCC(=O)O)c(C)c1 | 39 µM (inactive) | 30.1 µM (inactive) | 15.7 µM (inactive) | 17.2 µM (inactive) | 37.1 µM (inactive) | 30.3 µM (inactive) | 36.8 µM (inactive) | 48.2 µM (inactive) | 73.5 µM (inactive) | 27.4 µM (inactive) | 40.1 µM (inactive) | 11.7 µM (inactive) | 38.8 µM (inactive) | 45.1 µM (inactive) | 36.4 µM (inactive) | 36.8 µM (inactive) | – | – | – | –
2 | c1ccc(CSC(SCc2ccccc2)c2cccc3ccccc23)cc1 | > 10 µM (inactive) | – | > 10 µM (inactive) | > 10 µM (inactive) | > 10 µM (inactive) | – | 7.87 µM (inactive) | > 10 µM (inactive) | – | – | > 10 µM (inactive) | > 10 µM (inactive) | 8.85 µM (inactive) | > 10 µM (inactive) | > 10 µM (inactive) | > 10 µM (inactive) | > 10 µM (inactive) | > 10 µM (inactive) | > 10 µM (inactive) | > 10 µM (inactive)
3 | O=C(NC(COC(=O)C(Cc1ccccc1)NC(=O)c1ccccc1)Cc1ccccc1)c1ccccc1 (stereo not drawn) | > 50 µM (inactive) | – | > 50 µM (inactive) | – | – | > 50 µM (inactive) | > 50 µM (inactive) | > 50 µM (inactive) | > 50 µM (inactive) | > 50 µM (inactive) | 25.6 µM (inactive) | > 50 µM (inactive) | 32.7 µM (inactive) | > 50 µM (inactive) | > 50 µM (inactive) | > 50 µM (inactive) | – | > 50 µM (inactive) | > 50 µM (inactive) | > 50 µM (inactive)
4 | CCOC(=O)CSc1c(C(=O)OCC)c(=O)n(-c2ccccc2)c(=S)n1-c1ccccc1 | 83 µM (inactive) | 15.6 µM (inactive) | 5.61 µM (inactive) | 4.92 µM (inactive) | – | > 100 µM (inactive) | > 100 µM (inactive) | 53.5 µM (inactive) | 29.2 µM (inactive) | 0.0371 µM (active) | 34.7 µM (inactive) | 21.6 µM (inactive) | 36.7 µM (inactive) | 20.5 µM (inactive) | 59.2 µM (inactive) | 36.3 µM (inactive) | 65.8 µM (inactive) | – | 89.5 µM (inactive) | 54.6 µM (inactive)
5 | CCOC(=O)Nc1ccc(S(=O)(=O)NCCCl)cc1.CCOC(=O)Nc1ccc(S(=O)(=O)NCCCl)cc1.O=C(O)c1ccc(/N=N/Cl)cc1O | > 100 µM (inactive) | – | > 100 µM (inactive) | > 100 µM (inactive) | – | > 100 µM (inactive) | > 100 µM (inactive) | > 100 µM (inactive) | > 100 µM (inactive) | > 100 µM (inactive) | – | – | > 100 µM (inactive) | > 100 µM (inactive) | > 100 µM (inactive) | > 100 µM (inactive) | > 100 µM (inactive) | > 100 µM (inactive) | > 100 µM (inactive) | > 100 µM (inactive)
6 | CC1(C)CCc2c(ccc(C(=O)/C=C/c3ccc(O)cc3)c2O)O1 [DORSMANNIN A] | 11.9 µM (inactive) | 10.2 µM (inactive) | 16.1 µM (inactive) | 2.78 µM (inactive) | 10.6 µM (inactive) | 8.99 µM (inactive) | – | 9.48 µM (inactive) | 12.5 µM (inactive) | 11.2 µM (inactive) | 13.9 µM (inactive) | 12.1 µM (inactive) | 12.4 µM (inactive) | 9.1 µM (inactive) | – | 10 µM (inactive) | 10.9 µM (inactive) | – | 17.7 µM (inactive) | –
